Measured values published in patent publication US8497266B2, “3-(3-pyrimidin-2-ylbenzyl)-1,2,4-triazolo[4,3-b]pyridazine derivatives as MET kinase inhibitors” (Merck Patent GmbH, priority 2008, dated 2013).

How the values were obtained:
Met kinase [1] = molecular target: T1, Met kinase (Homo sapiens, UniProt P08581); assay: Met kinase inhibition, flashplate method (enzyme); format: biochemical; design: 6His (N); purchased Upstate 14-526; host or cells: Sf21 insect cells (S. frugiperda), baculovirus
Description: According to the manufacturer's data (Met, active, Upstate, catalogue No. 14-526), Met kinase is expressed for the purposes of protein production in insect cells (Sf21; S. frugiperda) and subsequent affinity-chromatographic purification as “N-terminal 6His-tagged” recombinant human protein in a baculovirus expression vector.
The test plates used are 96-well Flashplate® microtitre plates from Perkin Elmer (Cat. No. SMP200). The components of the kinase reaction described below are pipetted into the assay plate. The Met kinase and the substrate poly Ala-Glu-Lys-Tyr, (pAGLT, 6:2:5:1), are incubated for 3 hrs at room temperature with radioactively labelled ^33P-ATP in the presence and absence of test substances in a total volume of 100 μl. The reaction is terminated using 150 μl of a 60 mM EDTA solution. After incubation for a further 30 min at room temperature, the supernatants are filtered off with suction, and the wells are washed three times with 200 μl of 0.9% NaCl solution each time. The measurement of the bound radioactivity is carried out by means of a scintillation measuring instrument (Topcount NXT, Perkin-Elmer).
The full value used is the inhibitor-free kinase reaction. This should be approximately in the range 6000-9000 cpm. The pharmacological zero value used is staurosporin in a final concentration of 0.1 mM. The inhibitory values (IC50) are determined using the RS1_MTS program.
Kinase reaction conditions per well: • 30 μl of assay buffer • 10 μl of substance to be tested in assay buffer with 10% of DMSO • 10 μl of ATP (final concentration 1 μM cold, 0.35 μCi of ^33P-ATP) • 50 μl of Met kinase/substrate mixture in assay buffer; • (10 ng of enzyme/well, 50 ng of pAGLT/well) • Solutions used: • Assay buffer: • 50 mM HEPES • 3 mM magnesium chloride • 3 μM sodium orthovanadate • 3 mM manganese(II) chloride • 1 mM dithiothreitol (DTT) • pH=7.5 (to be set using sodium hydroxide) • Stop solution: • 60 mM Titriplex III (EDTA) • ^33P-ATP: Perkin-Elmer; • Met kinase: Upstate, Cat. No. 14-526, Stock 1 μg/10 μl; spec. activity 954 U/mg; • Poly-Ala-Glu-Lys-Tyr, 6:2:5:1: Sigma Cat. No. P1152 In-Vivo Tests
Target sequence in this assay (P08581 956-1390 limits assumed): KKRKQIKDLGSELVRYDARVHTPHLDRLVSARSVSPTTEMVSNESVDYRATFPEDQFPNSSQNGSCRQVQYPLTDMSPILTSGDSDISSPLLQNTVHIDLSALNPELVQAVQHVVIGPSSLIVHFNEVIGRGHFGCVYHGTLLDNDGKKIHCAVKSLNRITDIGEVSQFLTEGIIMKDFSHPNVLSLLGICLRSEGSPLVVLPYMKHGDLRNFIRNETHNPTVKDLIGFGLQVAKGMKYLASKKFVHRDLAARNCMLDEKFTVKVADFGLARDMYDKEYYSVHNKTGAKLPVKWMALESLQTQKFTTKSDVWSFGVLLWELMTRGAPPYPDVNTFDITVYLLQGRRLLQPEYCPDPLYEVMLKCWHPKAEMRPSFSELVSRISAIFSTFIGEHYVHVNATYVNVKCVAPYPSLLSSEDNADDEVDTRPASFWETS

Met kinase [2] = molecular target: T1, Met kinase; assay: Met kinase inhibition (cell); format: cell-based
Target sequence in this assay (P08581 25-1390): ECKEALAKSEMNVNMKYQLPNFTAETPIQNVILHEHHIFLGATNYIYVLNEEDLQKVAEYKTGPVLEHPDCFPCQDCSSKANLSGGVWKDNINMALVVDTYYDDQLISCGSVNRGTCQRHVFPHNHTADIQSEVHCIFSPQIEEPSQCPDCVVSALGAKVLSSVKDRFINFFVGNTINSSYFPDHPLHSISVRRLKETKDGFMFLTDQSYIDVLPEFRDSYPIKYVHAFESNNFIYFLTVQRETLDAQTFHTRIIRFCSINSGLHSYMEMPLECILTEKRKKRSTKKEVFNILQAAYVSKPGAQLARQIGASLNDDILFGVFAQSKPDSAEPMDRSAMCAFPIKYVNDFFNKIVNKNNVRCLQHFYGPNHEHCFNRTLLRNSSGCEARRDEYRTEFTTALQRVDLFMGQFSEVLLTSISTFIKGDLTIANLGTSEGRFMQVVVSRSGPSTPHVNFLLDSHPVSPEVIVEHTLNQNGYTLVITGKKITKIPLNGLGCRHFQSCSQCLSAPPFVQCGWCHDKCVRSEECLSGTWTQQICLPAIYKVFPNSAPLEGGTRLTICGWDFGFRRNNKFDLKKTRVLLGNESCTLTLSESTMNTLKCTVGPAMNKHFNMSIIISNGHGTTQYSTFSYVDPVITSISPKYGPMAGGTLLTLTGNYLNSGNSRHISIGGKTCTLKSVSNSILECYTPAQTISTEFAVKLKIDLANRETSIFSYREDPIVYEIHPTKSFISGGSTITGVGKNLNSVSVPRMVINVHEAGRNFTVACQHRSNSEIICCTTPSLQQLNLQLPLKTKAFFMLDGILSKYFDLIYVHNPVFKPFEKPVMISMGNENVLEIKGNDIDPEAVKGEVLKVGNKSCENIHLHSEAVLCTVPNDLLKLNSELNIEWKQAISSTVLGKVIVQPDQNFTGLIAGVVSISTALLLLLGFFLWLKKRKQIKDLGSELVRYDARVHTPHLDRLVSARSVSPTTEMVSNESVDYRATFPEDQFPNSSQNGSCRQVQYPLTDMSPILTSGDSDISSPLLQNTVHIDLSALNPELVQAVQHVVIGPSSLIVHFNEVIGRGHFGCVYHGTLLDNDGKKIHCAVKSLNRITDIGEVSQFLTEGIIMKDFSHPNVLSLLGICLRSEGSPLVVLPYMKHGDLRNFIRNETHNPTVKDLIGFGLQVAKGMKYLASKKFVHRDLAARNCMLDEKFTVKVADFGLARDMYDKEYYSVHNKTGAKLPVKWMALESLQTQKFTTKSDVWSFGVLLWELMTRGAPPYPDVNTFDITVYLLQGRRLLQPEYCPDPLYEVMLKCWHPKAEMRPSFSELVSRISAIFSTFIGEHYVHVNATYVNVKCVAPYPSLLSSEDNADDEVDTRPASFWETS

IC50 (Met kinase [1])	IC50 (Met kinase [2])	SMILES
1 to 100 nM	1 to 100 nM	Cc1ccc2nnc(C(F)(F)c3cccc(-c4ncc(Br)cn4)c3)n2n1 [Compound A27, 3-{[3-(5-bromopyrimidin-2-yl)phenyl]difluoromethyl}-6-methyl-1,2,4-triazolo[4,3-b]pyridazine]
1 to 100 nM	1 to 100 nM	Cc1ccc2nnc(C(F)(F)c3cccc(-c4ncc(OCC5CCN(C)CC5)cn4)c3)n2n1 [Compound A41, 3-(difluoro-{3-[5-(1-methylpiperidin-4-ylmethoxy)pyrimidin-2-yl]phenyl}methyl)-6-methyl-1,2,4-triazolo[4,3-b]pyridazine]
1 to 100 nM	1 to 100 nM	OCCn1cc(-c2ccc3nnc(Cc4cccc(-c5ncc(Br)cn5)c4)n3n2)cn1 [Compound A43, 2-(4-{3-[3-(5-bromopyrimidin-2-yl)benzyl]-1,2,4-triazolo-[4,3-b]pyridazin-6-yl}pyrazol-1-yl)ethanol]
